Assay results reported in patent US9045563B2, “CXC chemokine receptor 4 (CXCR4) antagonistic polypeptide” (priority 2007, dated 2015).
Where two headings read alike, the source gives them in different places. Ends that are not written are not given here.

Legend:
X4 tropic HIV-1 NL4-3 [1] = settings: TZM-bl cells; for IC50: read-out: IC50 ± SEM, X4 tropic HIV-1 NL4-3, two days post infection, synthetic peptides
Protocol: HIV inhibition test were performed by seeding 4000 P4-R5 MAGI cells (P. Charneau et al., J. Mol. Biol. 241: 651, 1994) in 100 μl of DMEM (10% FCS, 100 U/ml penicillin G, and 100 μg/ml streptomycin sulfate). P4-R5 cells are stably transfected with an LTR-lacZ cassette and upon successful infection by HIV-1 will express—galactosidase in a Tat-dependent manner, which can be detected in a chemiluminescence test. On the following day, aliquots of the fractions were added. Therefor the lyophilized fractions were resuspended in 80 μl of DMEM, and 25 μl each thereof was pipetted to P4-R5 cells, incubated at 37° C. for 1 hour and subsequently infected with HIV-1 NL4—3 (1 ng of p24 antigen). Virus stocks were obtained by transient infection of 293T cells with proviral DNA by the calcium phosphate method (CalPhos™ Mammalian Transfection Kit, Clontech). Virus stocks were harvested 48 hours post transfection, filtrated and used for infection. Three days post infection, β-galactosidase activity in infected P4-R5 cells was detected using GalScreen assay (TROPIX) as recommended by the manufacturer. Briefly, supernatant was removed, 40 μl of a 1:1 dilution of PBS/GalScreen+substrate was added, followed by incubation at room temperature for 30 min. Then 30 μl of the lysates were transferred into 96 well lumiplates. Subsequently, the lumines-cence was detected as relative light units per second in a luminometer (Berthold, ORION). From all measurements, the mean β-galactosidase background activity of non-infected control cells was subtracted. % infection values for each infection were calculated relative to no peptide containing controls (100%). The enzyme activities in measurements without ALB408-423 were set at 100%, and all other values were based thereon. The final purification (7th step) was examined under exactly the same conditions in TZM-bl cells (X. Wei et al., Antimicrob. Agents Chemother. 46: 1896, 2002).
1.6 mg of fraction 31 from the 7th step in Example 1 was dissolved in 160 μl of DMEM. Subsequently, 10 μl of serial dilutions of fraction 31 containing ALB408-423 were added to 60 μl of TZM-bl cells (60 μl) and infected with 1 ng of p24 antigen HIV-1 NL4—3 in a total volume of 100 μl. Three days later, infection rates were determined in a GalScreen assay (see Example 1).
(§1) 5000 TZM-bl cells were seeded in 100 μl of DMEM (10% FCS, 100 U/ml of penicillin G and 100 μg/ml of streptomycin sulfate). ALB408-423 was dissolved in PBS (10 mg/ml). One day later, 20 μl serial dilutions of ALB408-423 in PBS were added to cells and cells were subsequently infected with 0.5 ng of p24 antigen HIV-1 in a total volume of 200 μl. HIV-1 molecular clones differing in coreceptor tropism were used and generated as described (Papkalla et al., J. Virol. 76: 8455-9, 2002).
Table 1. Antiviral activity of various ALB fragments against X4 tropic HIV-1 NL4-3 infection. TZM-bl cells containing serial dilutions of synthetic peptides were infected with HIV-1 NL4-3 and infection rates were determined and calculated as described in example 1 and 2 at two days post infection. IC50 values were determined using the GraphPad Prism software package.
Various ALB408-423 derivatives containing N or C terminal deletions or amino acid substitutions (Table 1) were chemically synthesized and lyophilized peptides were dissolved in PBS. The antiviral activity was analyzed in TZM-bl cells using X4 tropic HIV-1 NL4-3 as described (example 4).

CXCR4 [2] = target: T1, CXCR4 (Homo sapiens, UniProt P61073); parameters: expressed in transfected cells; settings: read-out: dissociation constant of fluorescent CXCL12 for the CXCR4 receptor; cited from earlier work
CXCR4 [3] = target: T1, CXCR4; assay: Fluorescent binding assay on whole living cells, CXCL12-TR competition on HEK293 EGFP-hCXCR4; parameters: expressed in transfected cells
Protocol: FIG. 17. CXCR4 antagonistic activities of ALB derivatives. […] CXCR4 or CCR5 expressing HEK293 cells were treated with CXCR4 agonist CXCL12 (10 nM) or CCR5 agonist CCL5 (20 nM), respectively, in the absence (no ALB) or presence of indicated ALB derivatives (50 μM). Calcium responses were recorded as described. Data shown are mean values±standard deviation derived from duplicates relative to peak calcium responses after treatment with agonists only (100%). […] CXCR4 expressing HEK293 cells were treated with Texas Red labeled CXCL12 (CXCL12-Tr) in the presence or absence of ALB peptides. Real-time fluorescence monitoring of ligand-receptor interactions was carried out as described.

X4 tropic HIV-1 NL4-3 [4] = assay: X4 tropic HIV-1 infection and replication in PBMC, p24 antigen ELISA; type: cell-based; settings: 100 μM peptide, day 6 post infection
Protocol: To analyze the effect of ALB408-423 and derivatives thereof in relevant primary cells, peripheral blood mononuclear cells were isolated from Buffy coat derived from the DRK-Blutspendedienst Baden-Württemberg-Hessen using Ficoll density centrifugation. 1×10^6 PBMC per ml were stimulated with 1 μg/ml phytohemagglutinine (PHA, Oxoid, #3085280) and 10 ng/ml Interleukin 2 (IL-2, Strathmann, #9511192) for three days. Thereafter cells were pelleted and resuspended in IL-2 containing medium. 1.5×10^5 PBMC (250 μl) were seeded in 96 well dishes, peptides were added and cells were infected with […] p24 antigen of X4 tropic HIV-1 NL4-3. Supernatants containing progeny virus were taken at day 1, 3 and 6 post infection. Virus production was measured by p24 antigen ELISA (SAIC-Frederick, Inc [AIDS & Cancer virus program]). […] In the presence of 20 μM peptides virus replication was severely impaired.
FIG. 11. ALB408-423 and derivatives inhibit X4 tropic HIV-1 infection of peripheral blood mononuclear cells (PBMC). Cells were incubated with indicated concentrations of ALB408-423 or truncated variants and infected with X4 tropic HIV-1. Supernatants obtained after 6 days were analyzed by p24 ELISA. Shown are mean p24 antigen values (ng/ml) derived from triplicate infections±standard deviation.

[5] = tested on: dual tropic (CXCR4 and CCR5 using) variant 92ht593.1; assay: Infection of TZM-bl cells by dual tropic HIV-1, GalScreen; type: cell-based; settings: 100 μM peptide
Protocol: as §1
(§2) FIG. 3: Chemically synthesized ALB408-423 specifically blocks X4 tropic HIV-1 infection. TZM-bl cells containing indicated dilutions of peptide were infected with HIV-1 variants differing in their coreceptor tropism. 3 days later Gal Screen assay was used to measure infection rates. […] B) Infection rates in the presence of 500 μg/ml ALB408-423 showing that the peptide specifically blocks X4 but not R5 tropic HIV-1 infection. Data shown are mean values±standard deviation derived from triplicate infections relative to PBS containing cells (100% infection).
(§3) After 3 days, infection was detected using GalScreen assay (TROPIX) (example 1). […] In contrast, CCR5 tropic HIV-1 variants were not inhibited even in the presence of very high doses of ALB408-423 (500 μg/ml) (FIG. 3B). Due to the specific inhibition of the infection caused by X4-tropic HIV-1 variants, it is to be assumed that ALB408-423 interacts with the chemokine receptor CXCR4.
(§4) Virus stocks were first titrated on TZM-bl cells. Then TZM-bl cells containing 100 μM of peptides were infected with infectivity normalized amounts of X4, dualtropic (X4/R5) or R5 tropic HIV-1.
(§5) FIG. 10. ALB408-423 and truncated ALB derivatives specifically block X4 tropic HIV-1 infection. TZM-bl cells either containing PBS or 100 μM of indicated peptides were infected with normalized infectivities of X4, dualtropic or R5 tropic HIV-1 clones. Infection rates were measured 2 days post infection using the GalScreen assay. Shown are mean values (% of PBS treated control)±standard deviations derived from triplicate measurements.

[6] = tested on: X4 tropic HIV-1 variants NL4-3, P51-Sc, P59-S/27 and P34-S; settings: TZM-bl cells, 100 μM peptide
Protocol: as §1, §2, §3, §4, §5

[7] = tested on: CCR5 tropic HIV-1 variants; assay: Infection of TZM-bl cells by R5 tropic HIV-1 variants, GalScreen; type: cell-based; settings: 100 μM peptide
Protocol: as §1, §2, §3, §4, §5

T1 sequence (P61073 whole entry): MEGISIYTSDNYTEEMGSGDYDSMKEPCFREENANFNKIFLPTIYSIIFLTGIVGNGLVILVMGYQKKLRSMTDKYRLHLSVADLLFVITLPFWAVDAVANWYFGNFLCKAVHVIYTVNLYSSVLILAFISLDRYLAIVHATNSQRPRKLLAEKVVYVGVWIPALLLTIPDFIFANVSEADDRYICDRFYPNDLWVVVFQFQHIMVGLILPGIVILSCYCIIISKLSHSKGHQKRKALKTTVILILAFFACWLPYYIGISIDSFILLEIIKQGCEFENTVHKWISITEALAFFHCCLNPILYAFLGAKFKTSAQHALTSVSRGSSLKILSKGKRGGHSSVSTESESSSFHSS

Substance	antiviral activity against X4 tropic HIV-1 NL4-3 (words, SAR study) (X4 tropic HIV-1 NL4-3 [1])	IC50 (X4 tropic HIV-1 NL4-3 [1]) [µM]	further results
ALB408-416: SEQ ID No 15; C terminal truncation of ALB408-423, sequence not printed in Table 1 (LVRYTKKVP; listed as Homo sapiens)	remained active		
VPQVSTPTL [ALB415-423, VPQVSTPTL]	severely impaired or abrogated antiviral activity	> 100	
KKVPQVSTPTL [ALB413-423, KKVPQVSTPTL]	severely impaired or abrogated antiviral activity	> 100	
LVRYTAKV [ALB-K413A, LVRYTAKV]		56	
TKKVPQVSTPTL [ALB412-423, TKKVPQVSTPTL]	severely impaired or abrogated antiviral activity	> 100	
fluorescent CXCL12: synthesized human chemokine CXCL12 labeled with Texas Red, fluorescent CXCR4 ligand			Kd (CXCR4 [2]): 0.055 ± 0.015 µM
GVRYTKKVPQVS [ALB408G-419, GVRYTKKVPQVS]	inactive peptides		
LARYTKKV [ALB-V409A, LARYTKKV]		32.9	
LVRYTKKVPQV [ALB408-418, LVRYTKKVPQV]	remained active		
LVRYTKKA [ALB-V415A, LVRYTKKA]		33	
LVRYTKKVPQVST [ALB408-420, LVRYTKKVPQVST]	remained active		
LVRYTKKVPQ [ALB408-417, LVRYTKKVPQ]	remained active	19.9 ± 4.1	
LVRYTK [ALB408-413, LVRYTK]		> 50	Kd (CXCR4 [3]): > 200 µM
LVRYTKKVPQVS [ALB408-419, LVRYTKKVPQVS]	remained active	4.4 ± 1	p24 antigen in supernatants (X4 tropic HIV-1 NL4-3 [4]): only marginal p24 levels; inhibition of dualtropic HIV-1 clone 92ht593.1 [5]: only moderately; block of infection by X4 tropic HIV-1 clones (NL4-3, P51-Sc, P34-s) [6]: almost completely; effect on R5 tropic HIV-1 infection [7]: no effect
LVRYTKKVPQVSTPT [ALB408-422, LVRYTKKVPQVSTPT]	remained active		
RYTKKVPQVSTPTL [ALB410-423, RYTKKVPQVSTPTL]	severely impaired or abrogated antiviral activity	> 100	
LVAYTKKV [ALB-R410A, LVAYTKKV]		> 1000	
LVRYTKAV [ALB-K414A, LVRYTKAV]		31	
LVRYTKK [ALB408-414, LVRYTKK]	remained active		
FVRYTKKVPQVS [ALB408F-419, FVRYTKKVPQVS]	inactive peptides		
KVPQVSTPTL [ALB414-423, KVPQVSTPTL]	severely impaired or abrogated antiviral activity		
LVRATKKV [ALB-Y411A, LVRATKKV]		91	
LLVRYTKKVPQVS [ALB407-419, LLVRYTKKVPQVS]	reduced its antiviral activity		
LVRYAKKV [ALB-T412A, LVRYAKKV]		11.2 ± 0.1	inhibition of dualtropic HIV-1 clone 92ht593.1 [5]: only moderately; block of infection by X4 tropic HIV-1 clones (NL4-3, P51-Sc, P34-s) [6]: almost completely; effect on R5 tropic HIV-1 infection [7]: no effect
AVRYTKKVPQVS [ALB408A-419, AVRYTKKVPQVS]	inactive peptides		
YTKKVPQVSTPTL [ALB411-423, YTKKVPQVSTPTL]	severely impaired or abrogated antiviral activity		
LVRYTKKV [ALB408-415, LVRYTKKV]	remained active	17.4 ± 6.5	
IVRYTKKVPQVS [ALB408I-419]		1.55 ± 1.2	p24 antigen in supernatants (X4 tropic HIV-1 NL4-3 [4]): No p24 antigen could be detected; inhibition of dualtropic HIV-1 clone 92ht593.1 [5]: only moderately; block of infection by X4 tropic HIV-1 clones (NL4-3, P51-Sc, P34-s) [6]: almost completely; effect on R5 tropic HIV-1 infection [7]: no effect
LVRYTKKVPQVSTP [ALB408-421, LVRYTKKVPQVSTP]	remained active		
